Reference: article PMC8911752, “The Synthesis and Initial Evaluation of MerTK Targeted PET Agents” (Molecules, 2022)

Experiments:
MerTK = biological target: T1, MerTK (Homo sapiens, UniProt Q12866); design: method as in PMID 34038857; settings: read-out: Ki against MerTK; cited from earlier work
T1 sequence (Q12866 21-999): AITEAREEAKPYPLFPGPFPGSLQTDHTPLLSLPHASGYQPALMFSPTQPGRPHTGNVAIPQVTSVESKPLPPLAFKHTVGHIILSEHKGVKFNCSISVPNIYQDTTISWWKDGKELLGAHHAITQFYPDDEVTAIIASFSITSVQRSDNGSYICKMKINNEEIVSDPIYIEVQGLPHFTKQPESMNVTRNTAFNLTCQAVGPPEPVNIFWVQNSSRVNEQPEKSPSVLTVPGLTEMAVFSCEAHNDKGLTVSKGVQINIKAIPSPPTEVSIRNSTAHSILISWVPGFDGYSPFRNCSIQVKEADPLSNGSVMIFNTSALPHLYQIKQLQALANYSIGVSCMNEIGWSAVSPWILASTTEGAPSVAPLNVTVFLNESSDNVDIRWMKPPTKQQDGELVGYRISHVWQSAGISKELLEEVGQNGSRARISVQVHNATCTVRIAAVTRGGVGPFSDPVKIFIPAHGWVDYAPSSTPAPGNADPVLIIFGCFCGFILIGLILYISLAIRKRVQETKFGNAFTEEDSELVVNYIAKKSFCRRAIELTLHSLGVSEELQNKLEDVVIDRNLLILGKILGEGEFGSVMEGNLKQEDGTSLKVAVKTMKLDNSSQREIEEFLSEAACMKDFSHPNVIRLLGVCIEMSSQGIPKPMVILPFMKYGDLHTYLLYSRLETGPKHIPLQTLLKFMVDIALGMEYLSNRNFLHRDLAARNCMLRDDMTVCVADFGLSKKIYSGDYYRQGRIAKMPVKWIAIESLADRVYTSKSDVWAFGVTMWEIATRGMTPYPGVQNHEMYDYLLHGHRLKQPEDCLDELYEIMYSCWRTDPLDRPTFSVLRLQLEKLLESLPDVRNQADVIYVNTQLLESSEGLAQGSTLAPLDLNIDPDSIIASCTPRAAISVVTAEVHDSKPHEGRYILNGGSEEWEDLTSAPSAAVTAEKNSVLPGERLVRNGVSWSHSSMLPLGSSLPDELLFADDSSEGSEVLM

kinome = tested on: kinome; design: method as in PMID 34038857; settings: at 100 nM, against the kinome; cited from earlier work
[1] = tested on: B16F10 tumor-bearing mice; assay: PET imaging in B16F10 tumor-bearing mice; assay type: in vivo; settings: for uptake in kidney / uptake in liver / uptake in muscle / uptake in tumor: i.v., PET ROI, n = 3
Experimental: Evaluation of the PET agent [^18F]-MerTK-6 was performed on B16F10 tumor-bearing mice. At 30 min post-injection (p.i), the uptake in tumor, liver, kidney, and muscle was 4.65 ± 1.25, 14.79 ± 0.99, 10.42 ± 1.01, and 2.51 ± 0.48%ID/g, respectively. The uptake at 2 h p.i. was 4.79 ± 0.24, 9.72 ± 1.56, 5.34 ± 1.25, and 1.55 ± 0.23%ID/g, respectively. Overall, the tumor uptake was maintained at ~5%ID/g and the tumor to muscle contrast increased to 3.09 at 2 h p.i, compared with 1.86 at 0.5 h p.i.
All animal studies were reviewed and approved by The University of North Carolina at Chapel Hill Institutional Animal Care and Use Committee. The B16F10 tumor cell was obtained from the LCCC tissue culture facility (the University of North Carolina at Chapel Hill, Chapel Hill, NC, USA). The B16F10 tumor-bearing […] mouse model was prepared as described previously. Briefly, B16/F10 cells were subcutaneously injected on the right flank of C57BL/6 female mice (Jackson Laboratory). The tumor volume was measured daily. When the tumor size reached 100 mm^3, the mice were used for PET imaging studies.
B16F10 tumor-bearing mice (n = 3/group) were intravenously injected via the tail vein with tracers. At 30 min and 120 min post-injection, a 10-min static emission scan was acquired with a SuperArgus small-animal PET/CT scanner. The regions of interests (ROIs) were drawn over the tumor and other organs and calculated as %ID/g. The mean uptake and standard deviation were calculated.

[2] = 1-octanol/water partition coefficient (LogP) by gamma counting; assay type: physicochemical; settings: pH 7.4, sample pH around 7.4, n = 3, mean ± SD
Experimental: In order to evaluate the hydrophilicity and lipophilicity of this fluorine-18 labeled agent [^18F]-MerTK-6, we measured the 1-octanol/water partition coefficient (LogP) of [^18F]-MerTK-6. The resulting fractions were counted using a gamma counter. The reaction was repeated three times.
The LogP value of the [^18F]-MerTK-6 was calculated by the gamma particle counts of samples in the aqueous phase or 1-octanol phase by Automatic Gamma Counter 2480-0010 (PerkinElmer Instruments Inc., Waltham, MA, USA).
The [^18F]-MerTK-6 was collected after HPLC purification. After reformulation (pH value around 7.4), 20 µL [^18F]-MerTK-6 sample in saline was added to the mixture of 1 mL Mili-Q® water and 1 mL 1-octanol in a 5 mL Eppendorf tube. The tube was shacked thoroughly and then let stand still for 5 min. Then the 100 µL 1-octanol phase and 100 µL aqueous phase were subjected to a gamma counter separately and the gamma counts were recorded (n = 3). The LogP value was then calculated and expressed as a mean value± standard derivation.

Row | tumor to muscle ratio ([1]; 0.5 h post-injection) | uptake in kidney ([1]; 30 min post-injection) [%ID/g] | uptake in liver ([1]; 30 min post-injection) [%ID/g] | uptake in muscle ([1]; 30 min post-injection) [%ID/g] | uptake in tumor ([1]; 30 min post-injection) [%ID/g] | tumor to muscle ratio ([1]; 2 h post-injection) | uptake in kidney ([1]; 2 h post-injection) [%ID/g] | uptake in liver ([1]; 2 h post-injection) [%ID/g] | uptake in muscle ([1]; 2 h post-injection) [%ID/g] | uptake in tumor ([1]; 2 h post-injection) [%ID/g] | tumor uptake (overall, maintained) ([1]; overall, 0.5 h to 2 h post-injection) | logP [2] | SMILES | Ki (MerTK) [nM] | Ambit selectivity score S50 (kinome)
1 |  |  |  |  |  |  |  |  |  |  |  |  | CCC[C@H](C)Nc1ncc2c(C3CCN(C(=O)c4cc(C)nc(C)c4)CC3)cn(C3CCC(O)CC3)c2n1 (some centres unmarked) [UNC5293] | 0.19 | 0.041
2 | 1.86 | 10.42 ± 1.01 | 14.79 ± 0.99 | 2.51 ± 0.48 | 4.65 ± 1.25 | 3.09 | 5.34 ± 1.25 | 9.72 ± 1.56 | 1.55 ± 0.23 | 4.79 ± 0.24 | ~ 5 %ID/g | 1.56 ± 0.02 | C[C@H](Nc1ncc2c(C3CCN(CC[18F])CC3)cn([C@H]3CC[C@H](O)CC3)c2n1)c1ccccc1 [[^18F]-MerTK-6] |  | 
